Measured values taken from ChEMBL document CHEMBL1139102, “Comparison of N,N'-diarylsquaramides and N,N'-diarylureas as antagonists of the CXCR2 chemokine receptor” (Bioorg Med Chem Lett, 2007).
≈ marks a conversion by molar mass, not a printed value. Where “and” joins values, the source holds several entries; their conditions need not be identical. Equal values may be shown once.

Assays:
[1] = molecular target: T1, C-X-C chemokine receptor type 2 (Homo sapiens, UniProt P25025); assay: Displacement of [125I]IL8 from human recombinant CXCR2 expressed in CHO cells; format: cell-based
T1 sequence (P25025 whole entry): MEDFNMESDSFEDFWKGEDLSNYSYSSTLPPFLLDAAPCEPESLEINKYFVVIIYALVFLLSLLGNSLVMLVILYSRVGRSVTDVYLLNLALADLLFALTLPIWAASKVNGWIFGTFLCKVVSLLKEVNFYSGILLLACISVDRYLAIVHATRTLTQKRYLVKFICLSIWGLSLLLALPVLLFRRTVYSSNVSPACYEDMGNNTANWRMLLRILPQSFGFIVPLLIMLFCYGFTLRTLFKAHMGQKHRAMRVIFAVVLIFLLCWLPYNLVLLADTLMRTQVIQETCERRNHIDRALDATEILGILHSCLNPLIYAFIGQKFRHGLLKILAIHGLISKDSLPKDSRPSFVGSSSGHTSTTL

in vivo = conditions: Sprague-Dawley, rat, po, 8 umol/kg
[2] = Volume of distribution at steady state in Sprague-Dawley rat at 4 umol/kg, iv and 8 umol/kg, po; format: ADME, organism-based; conditions: in vivo, read-out: Vdss
[3] = Aqueous solubility in phosphate buffer at pH 7.4; format: physicochemical
[4] = Clearance in Sprague-Dawley rat at 4 umol/kg, iv and 8 umol/kg, po; format: ADME, organism-based; conditions: in vivo
[5] = Dissociation constant, pKa at pH 7.4; format: physicochemical

Cc1cccc(O)c1NC(=O)Nc1ccccc1
IC50 [1]: > 30 µM

Cc1ccc(O)c(NC(=O)Nc2ccccc2)c1
IC50 [1]: > 30 µM

O=C(Nc1ccccc1O)Nc1ccccc1Br
IC50 [1]: > 9 µM

Cl.O=c1c(Nc2ccccc2)c(Nc2ccc(Cl)c(S(=O)(=O)N3CCC(N4CCCCC4)CC3)c2O)c1=O
bioavailability (in vivo): 5%
Vd [2]: 0.24 L/kg
solubility [3]: 7 µM
clearance [4]: 0.072 L/h/kg

O=C(Nc1ccccc1)Nc1cc(Cl)c([N+](=O)[O-])cc1O
IC50 [1]: 0.95 µM

N#Cc1ccc(Nc2c(Nc3ccccc3Br)c(=O)c2=O)c(O)c1
IC50 [1]: 0.015 µM and 0.036 µM
Vd [2]: 0.15 L/kg
solubility [3]: 14 µM (≈ 5.38 µg/mL)
clearance [4]: 0.9 L/h/kg

COCCNS(=O)(=O)c1c(Cl)ccc(Nc2c(Nc3ccccc3)c(=O)c2=O)c1O
bioavailability (in vivo): 23%
IC50 [1]: 0.008 µM
Vd [2]: 0.14 L/kg
solubility [3]: 73 µM (≈ 33 µg/mL)
clearance [4]: 0.036 L/h/kg

O=C(Nc1ccccc1)Nc1c(O)cccc1[N+](=O)[O-]
IC50 [1]: > 30 µM

O=c1c(O)c(Nc2ccc([N+](=O)[O-])cc2O)/c1=N/c1ccccc1
IC50 [1]: 0.022 µM

N#Cc1cccc(Nc2c(Nc3ccccc3)c(=O)c2=O)c1O
IC50 [1]: 0.032 µM

N#Cc1cccc(NC(=O)Nc2ccccc2)c1O
IC50 [1]: 0.276 µM

O=C(c1c(Cl)ccc(Nc2c(Nc3ccccc3Br)c(=O)c2=O)c1O)N1CCCC1
IC50 [1]: 0.028 µM
solubility [3]: 143 µM (≈ 70.2 µg/mL)

CCCc1ccccc1Nc1c(Nc2ccc(Cl)c(S(=O)(=O)N3CCN(CC)CC3)c2O)c(=O)c1=O.O=C(O)C(F)(F)F
IC50 [1]: 0.008 µM
Vd [2]: 0.89 L/kg
solubility [3]: 78 µM
clearance [4]: 0.42 L/h/kg

O=c1c(O)c(Nc2ccccc2)/c1=N/c1ccccc1O
pKa [5]: 8.6
IC50 [1]: 0.235 µM

NC(=O)c1c(Cl)ccc(Nc2c(Nc3ccccc3)c(=O)c2=O)c1O
IC50 [1]: 0.014 µM
solubility [3]: 88 µM (≈ 31.5 µg/mL)

O=c1c(Nc2ccc(Cl)cc2O)c(Nc2ccccc2Br)c1=O
IC50 [1]: 0.032 µM
solubility [3]: 3 µM (≈ 1.18 µg/mL)

CN1CCN(S(=O)(=O)c2c(F)ccc(Nc3c(Nc4ccccc4Br)c(=O)c3=O)c2O)CC1.O=C(O)C(F)(F)F
IC50 [1]: 0.013 µM
solubility [3]: 44 µM

O=c1c(Nc2ccc([N+](=O)[O-])cc2O)c(Nc2ccccc2Br)c1=O
IC50 [1]: 0.037 µM

Cc1ccc(O)c(Nc2c(Nc3ccccc3)c(=O)c2=O)c1
IC50 [1]: 0.308 µM

Cc1cccc(O)c1Nc1c(Nc2ccccc2)c(=O)c1=O
IC50 [1]: 1.72 µM

O=c1c(Nc2ccccc2O)c(Nc2ccccc2Br)c1=O
IC50 [1]: 0.051 µM

O=c1c(Nc2ccccc2)c(Nc2c(O)cccc2[N+](=O)[O-])c1=O
IC50 [1]: 0.358 µM

O=C(Nc1ccccc1)Nc1ccccc1O
IC50 [1]: > 30 µM

O=c1c(Nc2ccccc2)c(Nc2cc(Cl)ccc2O)c1=O
IC50 [1]: 0.054 µM

CN1CCCN(C(=O)c2cccc(Nc3c(Nc4ccccc4)c(=O)c3=O)c2O)CC1.O=C(O)C(F)(F)F
IC50 [1]: 0.044 µM
Vd [2]: 0.33 L/kg
solubility [3]: 178 µM
clearance [4]: 0.9 L/h/kg

CN1CCN(C(=O)c2cccc(Nc3c(Nc4ccccc4)c(=O)c3=O)c2O)CC1.O=C(O)C(F)(F)F
IC50 [1]: 0.027 µM
solubility [3]: 121 µM

Cc1ccc(Nc2c(Nc3ccccc3)c(=O)c2=O)c(O)c1
IC50 [1]: 0.205 µM

O=C(Nc1ccccc1)Nc1cc(Cl)ccc1O
IC50 [1]: > 30 µM

O=c1c(Nc2ccccc2)c(Nc2cc(Cl)c([N+](=O)[O-])cc2O)c1=O
IC50 [1]: 0.052 µM

Cc1ccccc1Nc1c(Nc2ccc(C)c(S(=O)(=O)N(C)C)c2O)c(=O)c1=O
IC50 [1]: 0.015 µM
Vd [2]: 0.25 L/kg
solubility [3]: 10 µM (≈ 4.15 µg/mL)
clearance [4]: 0.24 L/h/kg

CN1CCCN(S(=O)(=O)c2c(Cl)ccc(Nc3c(Nc4ccccc4Br)c(=O)c3=O)c2O)CC1.Cl
IC50 [1]: 0.01 µM
Vd [2]: 0.24 L/kg
solubility [3]: 138 µM
clearance [4]: 0.24 L/h/kg

CN1CCCN(S(=O)(=O)c2c(Cl)ccc(Nc3c(Nc4ccccc4Cl)c(=O)c3=O)c2O)CC1.Cl
IC50 [1]: 0.02 µM
Vd [2]: 0.31 L/kg
solubility [3]: 160 µM
clearance [4]: 0.24 L/h/kg

Cc1ccc(NC(=O)Nc2ccccc2)c(O)c1
IC50 [1]: 25 µM

N#Cc1ccc(Nc2c(O)c(=O)/c2=N\c2ccccc2)c(O)c1
pKa [5]: 7.09
IC50 [1]: 0.015 µM

O=C(c1cccc(Nc2c(Nc3ccccc3C(F)(F)F)c(=O)c2=O)c1O)N1CCCC1
Vd [2]: 0.66 L/kg
solubility [3]: 86 µM (≈ 38.3 µg/mL)
clearance [4]: 2.7 L/h/kg
